Measurements reported in the supplement of paper PMC5908809.

Key:
[1] = system: normal NK cells expanded with K562-aAPC; experiment: drug sensitivity score (DSS) (DSS units); higher = more sensitive; extreme values may be limits of the assay; conditions: 72 h; IL-2 2.5 ng/mL
Experimental: (§1)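 Drug sensitivity and resistance testing on K562-aAPC-expanded normal NK cells: 5 concentrations (10-fold steps over a 10,000-fold range), 72 h at 37 °C, viability by CellTiter-Glo normalised to DMSO and benzethonium chloride controls; DSS from the fitted curve.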

IMC-1 (IL-2 20 ng/mL) [2] = experiment: percent inhibition of viability; higher = more inhibition; conditions: 72 h
NK-92 (IL-2 2.5 ng/mL) [3] = experiment: as above; conditions: 72 h
[4] = system: normal primary NK cells, pool 3 (3 donors) (IL-2 2.5 ng/mL); experiment: as above; conditions: 72 h
YT (IL-2 2.5 ng/mL) [5] = experiment: as above; conditions: 72 h
NKL (IL-2 2.5 ng/mL) [6] = experiment: as above; conditions: 72 h
[7] = system: normal primary NK cells, pool 2 (3 donors) (IL-2 2.5 ng/mL); experiment: as above; conditions: 72 h
KHYG-1 (IL-2 2.5 ng/mL) [8] = experiment: as above; conditions: 72 h
KAI3 (IL-2 2.5 ng/mL) [9] = experiment: as above; conditions: 72 h
[10] = system: normal primary NK cells, pool 1 (3 donors), resting (IL-2 0 ng/mL); experiment: as above; conditions: 72 h
NK-YS (IL-2 2.5 ng/mL) [11] = experiment: as above; conditions: 72 h
[12] = system: normal primary NK cells, pool 1 (3 donors) (IL-2 2.5 ng/mL); experiment: as above; conditions: 72 h
SNK-6 (IL-2 2.5 ng/mL) [13] = experiment: as above; conditions: 72 h
DERL-7 (IL-2 2.5 ng/mL) [14] = experiment: as above; conditions: 72 h
[15] = system: normal NK cells expanded with K562-aAPC; experiment: as above; conditions: 72 h, IL-2 2.5 ng/mL
Experimental: as §1

IMC-1 (IL-2 20 ng/mL) [16] = experiment: drug sensitivity score (DSS) (DSS units); higher = more sensitive; extreme values may be limits of the assay; conditions: 72 h
NK-92 (IL-2 2.5 ng/mL) [17] = experiment: as above; conditions: 72 h
[18] = system: normal primary NK cells, pool 3 (3 donors) (IL-2 2.5 ng/mL); experiment: as above; conditions: 72 h
YT (IL-2 2.5 ng/mL) [19] = experiment: as above; conditions: 72 h
NKL (IL-2 2.5 ng/mL) [20] = experiment: as above; conditions: 72 h
[21] = system: normal primary NK cells, pool 2 (3 donors) (IL-2 2.5 ng/mL); experiment: as above; conditions: 72 h
KHYG-1 (IL-2 2.5 ng/mL) [22] = experiment: as above; conditions: 72 h
KAI3 (IL-2 2.5 ng/mL) [23] = experiment: as above; conditions: 72 h
[24] = system: normal primary NK cells, pool 1 (3 donors), resting (IL-2 0 ng/mL); experiment: as above; conditions: 72 h
NK-YS (IL-2 2.5 ng/mL) [25] = experiment: as above; conditions: 72 h
[26] = system: normal primary NK cells, pool 1 (3 donors) (IL-2 2.5 ng/mL); experiment: as above; conditions: 72 h
SNK-6 (IL-2 2.5 ng/mL) [27] = experiment: as above; conditions: 72 h
DERL-7 (IL-2 2.5 ng/mL) [28] = experiment: as above; conditions: 72 h

Cc1cc([C@@H](C)Nc2ccccc2C(=O)O)c2nc(N3CCOCC3)cc(=O)n2c1 [AZD-6482] (max concentration tested 2500 nM)
Conditions | drug sensitivity score
DERL-7 (IL-2 2.5 ng/mL) [28] | 0.68
IMC-1 (IL-2 20 ng/mL) [16] | 0
KAI3 (IL-2 2.5 ng/mL) [23] | 0
KHYG-1 (IL-2 2.5 ng/mL) [22] | 0
NK-92 (IL-2 2.5 ng/mL) [17] | 3.55
NK-YS (IL-2 2.5 ng/mL) [25] | 0
NKL (IL-2 2.5 ng/mL) [20] | 0
SNK-6 (IL-2 2.5 ng/mL) [27] | 0.11
YT (IL-2 2.5 ng/mL) [19] | 2.58
[1] | 1.31
[18] | 0.05
[21] | 1.26
[24] | 0.12
[26] | 0.92

percent inhibition of viability [%]
Conditions | 0.25 nM | 2.5 nM | 25 nM | 250 nM | 2500 nM
DERL-7 (IL-2 2.5 ng/mL) [14] | -4.2 | -4.4 | 3.19 | 2.6 | 17
IMC-1 (IL-2 20 ng/mL) [2] | 1.39 | 3.21 | 2.72 | 3.93 | -5.9
KAI3 (IL-2 2.5 ng/mL) [9] | -5.85 | -0.65 | -3.24 | 1.82 | 7.93
KHYG-1 (IL-2 2.5 ng/mL) [8] | -0.9 | 1.99 | 2.56 | 6.11 | 8.71
NK-92 (IL-2 2.5 ng/mL) [3] | -8.01 | -6.53 | 4.21 | 8.86 | 41.9
NK-YS (IL-2 2.5 ng/mL) [11] | -5.33 | -1.23 | -3.08 | 0.81 | 7.94
NKL (IL-2 2.5 ng/mL) [6] | -13.3 | 2.45 | -1.09 | 6.43 | -3.2
SNK-6 (IL-2 2.5 ng/mL) [13] | 17.7 | 22.5 | 28.9 | 18.4 | 9.67
YT (IL-2 2.5 ng/mL) [5] | 2.09 | 3.67 | 7.43 | 14.2 | 28.4
[4] | -9.49 | -6.79 | 13.8 | -3.71 | 13
[7] | -5.18 | 0.99 | 18.9 | 5.04 | 17.1
[10] | 1.92 | -14.9 | -3.13 | -1.54 | 14
[12] | -3.99 | -0.34 | 5.64 | 2.68 | 19.6
[15] | -0.89 | -3.51 | 0.58 | 12.4 | 16.6

O=C(O)c1ccc(-c2c[nH]c3ncc(-c4ccccc4)cc23)cc1C1CCCC1 (max concentration tested 10000 nM)
Conditions | drug sensitivity score
DERL-7 (IL-2 2.5 ng/mL) [28] | 4.22
IMC-1 (IL-2 20 ng/mL) [16] | 4.18
KAI3 (IL-2 2.5 ng/mL) [23] | 8.09
KHYG-1 (IL-2 2.5 ng/mL) [22] | 8.41
NK-92 (IL-2 2.5 ng/mL) [17] | 4.5
NK-YS (IL-2 2.5 ng/mL) [25] | 4.89
NKL (IL-2 2.5 ng/mL) [20] | 7.3
SNK-6 (IL-2 2.5 ng/mL) [27] | 0
YT (IL-2 2.5 ng/mL) [19] | 3.73
[1] | 6.12
[18] | 1.43
[21] | 3.48
[24] | 3.47
[26] | 3.22

percent inhibition of viability [%]
Conditions | 1 nM | 10 nM | 100 nM | 1000 nM | 10000 nM
DERL-7 (IL-2 2.5 ng/mL) [14] | -9.96 | -1.92 | -0.6 | 3.14 | 69
IMC-1 (IL-2 20 ng/mL) [2] | -3.86 | -6.5 | -2.05 | 1.32 | 72.7
KAI3 (IL-2 2.5 ng/mL) [9] | 14.8 | 11.5 | 12.9 | 31 | 53.1
KHYG-1 (IL-2 2.5 ng/mL) [8] | 1.54 | -1.17 | 6.23 | 24.4 | 87.8
NK-92 (IL-2 2.5 ng/mL) [3] | -7.79 | -6.02 | -14.8 | 6.45 | 63.1
NK-YS (IL-2 2.5 ng/mL) [11] | 3.9 | -4.11 | 6.44 | 17.4 | 53.2
NKL (IL-2 2.5 ng/mL) [6] | -3 | 3.11 | 11.4 | 27.3 | 76.9
SNK-6 (IL-2 2.5 ng/mL) [13] | 2.78 | -21.4 | -20.9 | -24.3 | -8.86
YT (IL-2 2.5 ng/mL) [5] | 3.57 | -0.35 | 6.38 | 10.9 | 43.5
[4] | 2.83 | 5.65 | 10 | 2.66 | 25.9
[7] | -5.78 | -5.79 | -4.92 | 6.53 | 46
[10] | -0.46 | 4.28 | 6.33 | 11.9 | 41.2
[12] | -4.88 | 9.93 | 9.09 | 13.8 | 33.7
[15] | 0.69 | -1.15 | 0.93 | 14.6 | 68.6
